Measured values published in patent US20210379056A1, “SUBSTITUTED PYRAZOLE FUSED RING DERIVATIVE, PREPARATION METHOD THEREFOR, AND APPLICATION THEREOF” (Applied Pharmaceutical Science, Inc., priority 2018, published 2021).
Where two headings read alike, the source gives them in different places.

How the values were obtained:
Ret wt = biological target: T1, Ret wt (Homo sapiens, UniProt P07949); assay: HTRF kinase activity test, RET wild type; type: biochemical
T1 construct: purchased Invitrogen PV3082
T1 sequence (P07949 29-1114): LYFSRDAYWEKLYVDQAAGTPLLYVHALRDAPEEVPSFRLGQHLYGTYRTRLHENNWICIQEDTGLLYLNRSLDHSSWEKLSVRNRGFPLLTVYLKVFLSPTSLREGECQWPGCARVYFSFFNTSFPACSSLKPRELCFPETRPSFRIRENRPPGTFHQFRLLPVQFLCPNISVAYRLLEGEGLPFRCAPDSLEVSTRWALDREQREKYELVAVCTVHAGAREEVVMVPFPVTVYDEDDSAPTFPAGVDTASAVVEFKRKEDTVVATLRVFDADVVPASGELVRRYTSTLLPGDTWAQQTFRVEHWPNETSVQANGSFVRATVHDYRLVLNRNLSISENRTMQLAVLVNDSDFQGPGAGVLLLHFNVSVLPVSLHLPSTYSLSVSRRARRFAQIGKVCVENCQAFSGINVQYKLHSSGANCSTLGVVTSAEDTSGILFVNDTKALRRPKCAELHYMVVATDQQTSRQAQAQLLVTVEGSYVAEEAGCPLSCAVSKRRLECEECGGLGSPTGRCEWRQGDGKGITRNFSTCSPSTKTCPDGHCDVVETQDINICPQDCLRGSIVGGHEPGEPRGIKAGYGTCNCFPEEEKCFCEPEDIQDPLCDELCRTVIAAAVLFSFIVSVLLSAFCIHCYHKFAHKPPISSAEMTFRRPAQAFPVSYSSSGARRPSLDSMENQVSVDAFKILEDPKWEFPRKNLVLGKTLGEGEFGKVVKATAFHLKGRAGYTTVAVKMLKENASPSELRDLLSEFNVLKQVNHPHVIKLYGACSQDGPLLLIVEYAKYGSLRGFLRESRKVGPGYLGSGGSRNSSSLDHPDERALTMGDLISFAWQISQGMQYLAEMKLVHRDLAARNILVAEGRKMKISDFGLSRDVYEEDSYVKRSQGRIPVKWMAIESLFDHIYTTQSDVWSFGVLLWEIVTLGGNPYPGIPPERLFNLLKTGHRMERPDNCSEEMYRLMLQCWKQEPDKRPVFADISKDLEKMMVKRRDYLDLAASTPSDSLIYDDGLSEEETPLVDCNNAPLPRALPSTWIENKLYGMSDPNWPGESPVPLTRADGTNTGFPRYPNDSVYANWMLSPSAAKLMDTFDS

RET (V804L), activated = biological target: T2, RET (V804L), activated (Homo sapiens, UniProt P07949, V804L); assay: HTRF kinase activity test, RET V804L; type: biochemical; conditions: Table 2
T2 construct: purchased Signalchem R02-12BG-10
T2 sequence (P07949 29-1114 V804L): as the sequence (P07949 29-1114) above, with V776L counted along it
Experimental: This test combined peptide substrates and a single proprietary monoclonal antibody with HTRF technology, which was a highly sensitive and stable technology for detecting molecular interactions of proteins. The enzyme phosphorylates the substrate, then the Eu-labeled antibody binds to the phosphorylated substrate, and streptavidin-XL665 binds to all substrates. The TR-FRET signal was generated by the HTRF principle. […] Based on this, the inhibitory effect was evaluated.
(§1) The other compounds were diluted 3-fold gradiently with DMSO from the 10 mM stock solution to a total of 10 concentrations respectively.
(§2) Adding 4 volumes of distilled water to 1 volume of enzyme buffer 5×; 5 mM MgCl2; 1 mM DTT.
(§3) b) centrifuging the compound plate for 1 minute at 1000 g.
(§4) c) sealing the test board.
(§5) f) adding 4 μl of 1× kinase buffer to each well of the test plate, centrifuging the sample plate at 1000 g for 30 seconds, and placing it at room temperature for 10 minutes.
g) preparing a solution of 5× TK-substrate-biotin ([…]) in kinase buffer and 5×ATP (50 μM) in kinase buffer respectively. […]
(§6) The inhibition rate % was calculated as follows:
(§7) Inhibition rate %=[1−(fluorescence signal value of test compound−fluorescence signal value of positive control)/(average ratio of negative control−average ratio of positive control)]*100%
Ratio: generated from the measured fluorescence signal value […]

TT Cell = assay: Cell inhibitory activity test (CCK8); type: cell-based; conditions: Homo sapiens, TT, Table 3, 72 hours incubation
Outline: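 Cells seeded at 4000/well, pre-incubated 24 h (37 °C, 5% CO2), then exposed to graded compound concentrations for 72 h. Viability read by CCK8 at 450 nm after 1-2 h; IC50 fitted from concentration-absorbance data.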

[1] = system: RET wild-type, mutant and/or fusion-type; assay: Overall statement on RET inhibitory activity (summary of Table 3); conditions: statement in words summarising Table 3
Text: As shown in the above table, the example compounds of the present disclosure have improved inhibitory activity against RET wild-type, mutant and/or fusion-type.

RET (V804M) = biological target: T3, RET (V804M) (Homo sapiens, UniProt P07949, V804M); assay: HTRF kinase activity test, RET V804M; type: biochemical; conditions: Table 3; read-out: RET Enzyme (V804M) IC50
T3 construct: purchased Signalchem R02-12GG
T3 sequence (P07949 29-1114 V804M): as the sequence (P07949 29-1114) above, with V776M counted along it
Experimental: This test combined peptide substrates and a single proprietary monoclonal antibody with HTRF technology, which was a highly sensitive and stable technology for detecting molecular interactions of proteins. The enzyme phosphorylates the substrate, then the Eu-labeled antibody binds to the phosphorylated substrate, and streptavidin-XL665 binds to all substrates. The TR-FRET signal was generated by the HTRF principle. Once the inhibitor (test compound) was added, a weaker TR-FRET signal is obtained. Based on this, the inhibitory effect was evaluated.
as §1, §2
a) Transferring 10 nl of the compound dilution (prepared in 5.2) to each well of the test plate (784075, Greiner);
as §3, §4
d) preparing 5×Ret wt (0.2 ng/μl) and 5×Ret V804L (0.5 ng/μl)/5×Ret V804M (0.5 ng/μl) in 1× kinase buffer respectively.
e) adding 2 μl of 5×Ret wt or 2 μl of Ret V804L/RET V804M to a 384-well test plate (784075, Greiner).
as §5
g) preparing a solution of 5× TK-substrate-biotin ([…]) in kinase buffer and 5×ATP (50 μM) in kinase buffer respectively.
h) starting the reaction by adding 2 μl STK-substrate-biotin and 2 μl ATP (prepared in the step g).
i) centrifuging the sample plate for 30 seconds at 1000 g. Sealing the test board and placing it at room temperature for 30 minutes.
j) preparing 4×Sa-XL 665 (250 nM) in HTRF detection buffer.
k) adding 5 μl of Sa-XL 665 and 5 μl of TK-antibody-Cryptate (prepared in the step i) to each well of the test plate.
) centrifuging at 1000 g for 30 seconds and placing it at room temperature for 1 hour.
m) reading the fluorescence signal values at 615 nm (Cryptate) and 665 nm (XL665) on the Envision 2104 plate reader.
Calculating the ratio of each hole (665 nm/615 nm).
as §6, §7
Ratio: generated from the measured fluorescence signal value
The average ratio of the positive control is the average ratio of the positive control (200 nM AT13148) in the sample plate;
The average ratio of negative controls is the average ratio of negative controls (0.1% DMSO) in the sample plate.
GraphPad 6.0 was used to fit the logarithm of the % inhibition rate and the compound concentration into a nonlinear regression (dose response−variable slope) to calculate the IC50 value.

[2] = Table 2, read-out: IC50 (nM) RET wt
[3] = Table 3, read-out: RET Enzyme (wild type) IC50

SMILES	IC50 (Ret wt; [2])	IC50 (Ret wt; [3])	IC50 (RET (V804L), activated)	IC50 (TT Cell)	inhibitory activity against RET wild-type, mutant and/or fusion-type [1]	IC50 (RET (V804M))
Cn1cc(-c2cc(-c3ccc(N4CCN(C(=O)Cc5ccc(F)cn5)CC4)nc3)c3c(C#N)c(N)nn3c2)cn1 [APS069, 2-amino-4-(6-(4-(2-(5-fluoropyridin-2-yl)acetyl)piperazin-1-yl)pyridin-3-yl)-6-(1-methyl-1H-pyrazol-4-yl)pyrazolo[1,5-a]pyridine-3-carbonitrile]	0.325 nM	< 1 nM	0.124 nM	28.8 nM	excellent activity	
Cn1cc(-c2cc(-c3ccc(N4CCC(Cc5ccccn5)CC4)nc3)c3c(C#N)c(N)nn3c2)cn1 [APS070, 2-amino-6-(1-methyl-1H-pyrazol-4-yl)-4-(6-(4-(pyridin-2-yl-methyl)piperidin-1-yl)pyridin-3-yl)pyrazolo[1,5-a]pyridine-3-carbonitrile]	0.418 nM	< 1 nM	0.0759 nM	15.6 nM	excellent activity	
COc1ccc(CN2C3CC2CN(c2ccc(-c4cc(OCCF)cn5nc(N)c(C#N)c45)cn2)C3)cn1 [APS119, 2-amino-6-(2-fluoroethoxy)-4-(6-(6-((6-methoxypyridin-3-yl)methyl)-3,6-diazabicyclo[3.1.1]heptan-3-yl)pyridin-3-yl)pyrazolo[1,5-a]pyridine-3-carbonitrile]		< 1 nM		6.6 nM	excellent activity	< 1 nM
